The text below walks through data of patent US10231954B2, “Neurodegenerative therapies” (LYTIX BIOPHARMA AS, priority 2014, dated 2019).

Like-named read-outs stand apart in the source and are kept apart here.

Holding throughout (type): biochemical
For assay [1], the target named is CAMK1 (Homo sapiens, UniProt Q14012). The experiment in a line: Kinase profiling CAMK1. Particulars: read-out: residual kinase activity, CAMK1. An excerpt:
(§1) Any value less that 25 is considered to be highly significant inhibition.

In assay [2] the target is RSK2 (Homo sapiens, UniProt P51812). The experiment in a line: Kinase profiling RSK2. Particulars: for remaining activity at 100 µM: read-out: residual kinase activity, RSK2.
Description: as §1

Assay [3] deals with MARK3 (Homo sapiens, UniProt P27448). The experiment in a line: Kinase profiling MARK3. The conditions noted are these: read-out: residual kinase activity, MARK3.
Description: as §1

In assay [4] the target is ERK1 (Homo sapiens, UniProt P27361). Kind of assay: Kinase profiling ERK1. The conditions noted are these: for remaining activity at 100 µM: read-out: residual kinase activity, ERK1.
Description: as §1

Assay [5] addresses PKBb (Homo sapiens, UniProt P31751). The experiment in a line: Kinase profiling PKBb. Particulars: for remaining activity at 100 µM: read-out: residual kinase activity, PKBb; for residual kinase activity, PKBb: 100 micromolar inhibitor concentration, 100 is no change.
Description: as §1

Assay [6] addresses T1, MST2 (Homo sapiens, UniProt Q13188).
T1 sequence (Q13188 1-491): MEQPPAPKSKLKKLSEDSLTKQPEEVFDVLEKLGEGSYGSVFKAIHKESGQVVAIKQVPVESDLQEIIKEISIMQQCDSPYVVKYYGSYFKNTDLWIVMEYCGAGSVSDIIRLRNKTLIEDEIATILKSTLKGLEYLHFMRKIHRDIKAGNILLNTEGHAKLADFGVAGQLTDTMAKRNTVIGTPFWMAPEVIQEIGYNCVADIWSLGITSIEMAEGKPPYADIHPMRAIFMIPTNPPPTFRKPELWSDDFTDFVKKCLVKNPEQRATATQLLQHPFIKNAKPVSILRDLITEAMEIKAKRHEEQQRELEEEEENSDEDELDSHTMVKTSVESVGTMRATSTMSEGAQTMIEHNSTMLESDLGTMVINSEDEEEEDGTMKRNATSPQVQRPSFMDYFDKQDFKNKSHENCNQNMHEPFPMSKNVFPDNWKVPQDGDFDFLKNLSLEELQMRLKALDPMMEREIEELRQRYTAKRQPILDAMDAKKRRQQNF
The experiment in a line: Kinase profiling MST2. Particulars: read-out: residual kinase activity, MST2.
Description: as §1

Assay [7] concerns the target MSK1 (Homo sapiens, UniProt O75582). The experiment in a line: Kinase profiling MSK1. The conditions noted are these: read-out: residual kinase activity, MSK1.
Description: as §1

Assay [8] deals with PAK4 (Homo sapiens, UniProt O96013). The experiment in a line: Kinase profiling PAK4. Particulars: read-out: residual kinase activity, PAK4.
Description: as §1

The target in assay [9] is T2, IRAK4 (Homo sapiens, UniProt Q9NWZ3).
T2 sequence (Q9NWZ3 1-460): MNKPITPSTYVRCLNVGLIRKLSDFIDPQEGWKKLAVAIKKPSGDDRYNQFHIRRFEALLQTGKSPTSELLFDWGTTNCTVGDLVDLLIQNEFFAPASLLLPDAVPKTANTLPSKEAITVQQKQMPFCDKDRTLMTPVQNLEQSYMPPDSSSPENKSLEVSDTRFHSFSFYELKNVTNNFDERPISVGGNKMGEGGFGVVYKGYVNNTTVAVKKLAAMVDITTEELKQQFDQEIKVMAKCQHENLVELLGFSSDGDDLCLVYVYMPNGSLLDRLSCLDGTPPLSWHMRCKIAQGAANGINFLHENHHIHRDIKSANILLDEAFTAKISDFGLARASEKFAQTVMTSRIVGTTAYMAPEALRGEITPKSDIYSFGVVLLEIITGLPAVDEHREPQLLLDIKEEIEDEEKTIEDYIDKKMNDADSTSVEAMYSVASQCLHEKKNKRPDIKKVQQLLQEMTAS
The experiment in a line: Kinase profiling IRAK4. The conditions noted are these: read-out: residual kinase activity, IRAK4.
Description: as §1

Assay [10] has as its target NEK6 (Homo sapiens, UniProt Q9HC98). The experiment in a line: Kinase profiling NEK6. The conditions noted are these: read-out: residual kinase activity, NEK6.
Description: as §1

Assay [11] deals with T3, TBK1 (Homo sapiens, UniProt Q9UHD2).
T3 sequence (Q9UHD2 1-729): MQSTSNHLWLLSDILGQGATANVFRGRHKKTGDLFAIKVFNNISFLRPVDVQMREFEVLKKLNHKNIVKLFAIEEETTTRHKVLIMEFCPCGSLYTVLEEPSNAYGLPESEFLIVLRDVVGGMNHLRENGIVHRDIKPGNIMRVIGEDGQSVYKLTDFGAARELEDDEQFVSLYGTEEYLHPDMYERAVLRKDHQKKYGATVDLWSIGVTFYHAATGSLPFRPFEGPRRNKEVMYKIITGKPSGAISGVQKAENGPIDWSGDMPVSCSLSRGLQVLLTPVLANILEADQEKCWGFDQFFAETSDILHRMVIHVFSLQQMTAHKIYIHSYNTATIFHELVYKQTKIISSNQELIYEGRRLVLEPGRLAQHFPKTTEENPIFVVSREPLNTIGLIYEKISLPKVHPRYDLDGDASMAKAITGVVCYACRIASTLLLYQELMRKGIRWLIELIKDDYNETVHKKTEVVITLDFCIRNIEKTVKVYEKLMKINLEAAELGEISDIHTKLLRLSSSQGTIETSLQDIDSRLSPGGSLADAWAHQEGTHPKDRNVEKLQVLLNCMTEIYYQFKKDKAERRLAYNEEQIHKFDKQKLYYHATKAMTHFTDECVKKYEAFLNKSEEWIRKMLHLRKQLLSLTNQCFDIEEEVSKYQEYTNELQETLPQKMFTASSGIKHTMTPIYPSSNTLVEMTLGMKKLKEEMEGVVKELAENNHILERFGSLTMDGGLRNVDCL
Kind of assay: Kinase profiling TBK1. Particulars: read-out: residual kinase activity, TBK1.
Description: as §1

For assay [12], the target named is MLK3 (Homo sapiens, UniProt Q16584). The experiment in a line: Kinase profiling MLK3. Particulars: read-out: residual kinase activity, MLK3.
Description: as §1

For assay [13], the target named is T4, p38d MAPK (Homo sapiens, UniProt O15264).
T4 sequence (O15264 1-365): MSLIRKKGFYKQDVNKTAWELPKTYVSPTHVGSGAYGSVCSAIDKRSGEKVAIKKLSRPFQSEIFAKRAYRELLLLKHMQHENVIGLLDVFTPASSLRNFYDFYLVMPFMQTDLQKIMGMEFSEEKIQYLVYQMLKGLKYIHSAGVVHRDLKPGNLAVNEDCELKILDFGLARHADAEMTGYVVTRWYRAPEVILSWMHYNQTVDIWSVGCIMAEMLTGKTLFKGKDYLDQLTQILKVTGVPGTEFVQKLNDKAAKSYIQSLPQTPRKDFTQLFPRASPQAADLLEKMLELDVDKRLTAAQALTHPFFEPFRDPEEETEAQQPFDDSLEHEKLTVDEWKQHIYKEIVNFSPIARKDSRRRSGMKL
The experiment in a line: Kinase profiling p38d MAPK. Particulars: for remaining activity at 100 µM: read-out: residual kinase activity, p38d MAPK.
Description: as §1

Assay [14] concerns the target p38a MAPK (Homo sapiens, UniProt Q16539). Kind of assay: Kinase profiling p38a MAPK. The conditions noted are these: for remaining activity at 100 µM: read-out: residual kinase activity, p38a MAPK.
Description: as §1

Assay [15] deals with SYK (Homo sapiens, UniProt P43405). The experiment in a line: Kinase profiling SYK. The conditions noted are these: read-out: residual kinase activity, SYK.
Description: as §1

Assay [16] addresses SmMLCK (Homo sapiens, UniProt Q15746). Kind of assay: Kinase profiling SmMLCK. The conditions noted are these: 100 micromolar inhibitor concentration; 100 is no change; read-out: residual kinase activity, SmMLCK.
Where [17] appears, read: 100 micromolar inhibitor concentration, 100 is no change.

Sequence of NEK6 (Q9HC98 whole entry, species assumed): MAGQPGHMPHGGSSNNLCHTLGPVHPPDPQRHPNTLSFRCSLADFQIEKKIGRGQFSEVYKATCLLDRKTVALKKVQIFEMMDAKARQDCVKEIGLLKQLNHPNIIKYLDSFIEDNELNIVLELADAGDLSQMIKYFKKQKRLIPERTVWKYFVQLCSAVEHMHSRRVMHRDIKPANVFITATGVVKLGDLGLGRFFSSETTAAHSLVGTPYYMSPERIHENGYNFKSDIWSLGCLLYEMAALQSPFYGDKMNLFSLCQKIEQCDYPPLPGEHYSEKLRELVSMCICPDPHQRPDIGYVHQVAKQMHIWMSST
Sequence of RSK2 (P51812 whole entry, species assumed): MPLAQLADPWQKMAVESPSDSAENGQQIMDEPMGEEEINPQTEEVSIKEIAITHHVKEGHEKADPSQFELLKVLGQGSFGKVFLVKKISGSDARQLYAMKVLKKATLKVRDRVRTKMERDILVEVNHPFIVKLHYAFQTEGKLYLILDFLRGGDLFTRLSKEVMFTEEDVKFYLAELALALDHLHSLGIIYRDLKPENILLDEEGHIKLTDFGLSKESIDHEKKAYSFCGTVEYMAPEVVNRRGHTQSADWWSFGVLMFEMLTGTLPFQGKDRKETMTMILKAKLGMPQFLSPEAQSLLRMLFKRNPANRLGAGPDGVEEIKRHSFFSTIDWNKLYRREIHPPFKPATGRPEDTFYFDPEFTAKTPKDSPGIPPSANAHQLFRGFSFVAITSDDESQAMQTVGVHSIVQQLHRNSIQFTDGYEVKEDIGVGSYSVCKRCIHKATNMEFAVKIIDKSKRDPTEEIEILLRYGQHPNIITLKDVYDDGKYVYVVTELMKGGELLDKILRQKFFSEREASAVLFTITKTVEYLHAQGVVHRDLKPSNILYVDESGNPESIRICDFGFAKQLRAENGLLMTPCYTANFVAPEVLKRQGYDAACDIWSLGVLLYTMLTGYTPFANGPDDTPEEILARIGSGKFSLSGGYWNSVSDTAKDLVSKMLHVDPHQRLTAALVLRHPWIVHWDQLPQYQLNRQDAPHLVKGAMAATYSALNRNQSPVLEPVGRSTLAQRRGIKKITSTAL
Sequence of CAMK1 (Q14012 whole entry, species assumed): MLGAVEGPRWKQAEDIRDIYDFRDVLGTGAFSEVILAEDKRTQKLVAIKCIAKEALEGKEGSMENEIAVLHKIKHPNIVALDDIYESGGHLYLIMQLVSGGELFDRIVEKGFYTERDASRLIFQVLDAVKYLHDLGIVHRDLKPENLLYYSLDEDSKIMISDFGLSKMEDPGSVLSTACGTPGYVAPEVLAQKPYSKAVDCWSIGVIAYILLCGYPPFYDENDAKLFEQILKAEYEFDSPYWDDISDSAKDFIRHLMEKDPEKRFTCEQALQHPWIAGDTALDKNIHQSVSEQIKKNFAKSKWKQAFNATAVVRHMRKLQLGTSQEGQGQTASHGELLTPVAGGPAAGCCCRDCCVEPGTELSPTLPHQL
Sequence of MSK1 (O75582 whole entry, species assumed): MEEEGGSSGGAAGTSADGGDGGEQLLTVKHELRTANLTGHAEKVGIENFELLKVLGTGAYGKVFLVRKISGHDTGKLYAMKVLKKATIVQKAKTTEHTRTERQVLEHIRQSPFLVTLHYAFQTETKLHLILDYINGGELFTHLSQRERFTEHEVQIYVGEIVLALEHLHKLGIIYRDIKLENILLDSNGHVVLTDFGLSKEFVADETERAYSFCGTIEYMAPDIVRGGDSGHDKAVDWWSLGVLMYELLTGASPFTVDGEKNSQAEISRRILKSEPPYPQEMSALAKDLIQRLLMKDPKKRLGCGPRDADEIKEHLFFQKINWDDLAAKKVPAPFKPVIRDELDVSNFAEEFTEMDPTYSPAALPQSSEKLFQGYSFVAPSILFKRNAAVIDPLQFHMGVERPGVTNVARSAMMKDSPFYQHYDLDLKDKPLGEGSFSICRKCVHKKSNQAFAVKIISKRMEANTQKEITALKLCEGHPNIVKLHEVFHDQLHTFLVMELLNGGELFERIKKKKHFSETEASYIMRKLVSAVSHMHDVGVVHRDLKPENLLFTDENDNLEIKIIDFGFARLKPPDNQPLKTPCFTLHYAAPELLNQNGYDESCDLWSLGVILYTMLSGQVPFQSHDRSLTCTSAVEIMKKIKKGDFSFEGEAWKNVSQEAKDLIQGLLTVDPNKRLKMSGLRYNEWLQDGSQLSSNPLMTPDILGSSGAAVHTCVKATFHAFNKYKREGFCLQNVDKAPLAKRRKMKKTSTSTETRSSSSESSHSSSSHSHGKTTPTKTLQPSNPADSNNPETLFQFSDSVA
Sequence of SmMLCK (Q15746 923-1914): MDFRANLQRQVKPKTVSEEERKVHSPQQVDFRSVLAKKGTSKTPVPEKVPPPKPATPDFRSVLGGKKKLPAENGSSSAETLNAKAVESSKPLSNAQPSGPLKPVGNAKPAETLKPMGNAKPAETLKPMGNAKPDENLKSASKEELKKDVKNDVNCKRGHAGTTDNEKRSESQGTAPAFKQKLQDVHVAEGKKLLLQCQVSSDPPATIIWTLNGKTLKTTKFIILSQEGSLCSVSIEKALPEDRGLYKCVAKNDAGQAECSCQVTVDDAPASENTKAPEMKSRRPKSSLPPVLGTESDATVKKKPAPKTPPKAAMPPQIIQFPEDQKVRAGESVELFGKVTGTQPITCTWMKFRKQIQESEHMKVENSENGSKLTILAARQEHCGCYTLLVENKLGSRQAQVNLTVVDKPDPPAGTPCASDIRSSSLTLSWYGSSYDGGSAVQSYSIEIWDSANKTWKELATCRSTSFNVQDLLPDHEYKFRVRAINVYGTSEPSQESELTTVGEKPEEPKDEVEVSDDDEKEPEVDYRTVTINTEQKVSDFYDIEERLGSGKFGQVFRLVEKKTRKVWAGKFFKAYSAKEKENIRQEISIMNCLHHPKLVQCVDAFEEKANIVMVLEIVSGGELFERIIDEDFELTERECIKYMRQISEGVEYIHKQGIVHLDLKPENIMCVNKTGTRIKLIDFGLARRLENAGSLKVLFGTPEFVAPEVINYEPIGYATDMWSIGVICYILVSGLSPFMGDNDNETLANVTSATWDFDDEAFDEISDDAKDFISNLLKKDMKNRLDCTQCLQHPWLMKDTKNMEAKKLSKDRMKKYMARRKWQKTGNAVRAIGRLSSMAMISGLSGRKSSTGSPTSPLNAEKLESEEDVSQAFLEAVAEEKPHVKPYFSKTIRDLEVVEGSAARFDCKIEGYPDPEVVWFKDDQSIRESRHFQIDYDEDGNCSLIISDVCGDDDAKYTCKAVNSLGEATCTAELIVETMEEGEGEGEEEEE
Sequence of ERK1 (P27361 whole entry, species assumed): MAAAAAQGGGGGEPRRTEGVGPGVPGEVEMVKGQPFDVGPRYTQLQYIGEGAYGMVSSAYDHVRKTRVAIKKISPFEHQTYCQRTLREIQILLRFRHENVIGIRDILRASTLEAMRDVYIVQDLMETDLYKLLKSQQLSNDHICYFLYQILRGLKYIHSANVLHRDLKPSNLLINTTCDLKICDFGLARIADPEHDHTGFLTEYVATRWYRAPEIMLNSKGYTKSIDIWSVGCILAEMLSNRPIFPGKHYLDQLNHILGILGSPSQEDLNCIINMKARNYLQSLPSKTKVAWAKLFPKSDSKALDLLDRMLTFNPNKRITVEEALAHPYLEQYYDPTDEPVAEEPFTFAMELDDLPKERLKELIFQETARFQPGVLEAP
Sequence of MLK3 (Q16584 whole entry, species assumed): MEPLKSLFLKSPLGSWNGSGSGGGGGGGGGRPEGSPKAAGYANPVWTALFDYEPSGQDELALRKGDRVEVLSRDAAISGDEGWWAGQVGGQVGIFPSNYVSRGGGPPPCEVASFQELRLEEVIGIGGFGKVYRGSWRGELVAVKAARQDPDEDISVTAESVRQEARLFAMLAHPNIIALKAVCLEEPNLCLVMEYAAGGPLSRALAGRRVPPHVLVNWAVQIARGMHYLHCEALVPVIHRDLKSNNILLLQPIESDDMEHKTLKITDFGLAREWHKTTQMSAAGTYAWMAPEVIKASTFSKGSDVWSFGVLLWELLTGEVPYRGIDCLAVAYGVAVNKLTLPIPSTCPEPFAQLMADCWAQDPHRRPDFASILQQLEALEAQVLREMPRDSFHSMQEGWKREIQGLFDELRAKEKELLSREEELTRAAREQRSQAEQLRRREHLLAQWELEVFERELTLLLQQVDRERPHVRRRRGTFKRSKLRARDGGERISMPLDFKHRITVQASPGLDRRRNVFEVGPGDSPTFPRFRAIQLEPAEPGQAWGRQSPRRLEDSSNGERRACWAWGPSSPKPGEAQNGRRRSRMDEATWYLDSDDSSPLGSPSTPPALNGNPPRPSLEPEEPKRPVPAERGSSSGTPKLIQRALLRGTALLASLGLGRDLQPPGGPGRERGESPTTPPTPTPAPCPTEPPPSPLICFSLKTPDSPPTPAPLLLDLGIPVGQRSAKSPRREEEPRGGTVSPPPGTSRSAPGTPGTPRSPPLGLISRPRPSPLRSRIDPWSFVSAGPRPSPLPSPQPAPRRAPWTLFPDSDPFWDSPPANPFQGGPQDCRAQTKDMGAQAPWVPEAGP
Sequence of PAK4 (O96013 whole entry, species assumed): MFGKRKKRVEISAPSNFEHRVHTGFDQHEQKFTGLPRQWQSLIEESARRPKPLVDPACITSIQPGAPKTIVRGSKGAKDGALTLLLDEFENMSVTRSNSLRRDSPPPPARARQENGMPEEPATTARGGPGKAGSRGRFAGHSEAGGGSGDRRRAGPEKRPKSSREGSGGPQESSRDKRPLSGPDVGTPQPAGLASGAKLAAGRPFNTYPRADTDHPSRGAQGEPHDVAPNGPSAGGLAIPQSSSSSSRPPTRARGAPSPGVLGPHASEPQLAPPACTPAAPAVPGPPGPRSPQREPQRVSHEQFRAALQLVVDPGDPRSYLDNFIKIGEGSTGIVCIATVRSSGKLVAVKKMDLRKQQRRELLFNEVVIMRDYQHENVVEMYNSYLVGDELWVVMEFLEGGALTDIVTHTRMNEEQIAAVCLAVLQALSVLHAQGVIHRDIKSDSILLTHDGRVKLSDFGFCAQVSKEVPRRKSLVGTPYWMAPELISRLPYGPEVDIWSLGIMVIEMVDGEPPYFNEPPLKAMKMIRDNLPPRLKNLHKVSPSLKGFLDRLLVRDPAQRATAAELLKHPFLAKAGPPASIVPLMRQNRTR

On to `CC(=O)Nc1nc2cc(O)ccc2s1` [Compound 01-66, N-(5-hydroxybenzo[d]thiazol-2-yl)acetamide], for which the remaining activity at 100 µM stood at 69% in assay [1]; 66% in [2]; 34% in [3]; 61% in assay [4]; 55% in [5]; 69% in assay [6]. Moreover, the remaining activity at 100 µM in assay [7] is 62%; in assay [8], 66%; in assay [9], 18%; in [10], 82%; in assay [11], 60%; in [12] it was 41%. Moreover, the remaining activity at 100 µM is 70% in assay [13], 84% in assay [14], 82% in assay [15] and 58% in assay [16].
Regarding `CC(=O)Nc1nc2ccc(O)cc2s1` [Compound 01-71], the remaining activity at 100 µM stood at 52% in [1] (setting [17]); 48% in assay [2] (setting [17]); 46% in assay [3] (setting [17]); 65% in assay [4] (setting [17]); 57% in assay [5]; 56% in assay [6] (setting [17]). Besides, the remaining activity at 100 µM came to 31% in [7] (setting [17]); 51% in [8] (setting [17]); 13% in [9] (setting [17]); 75% in assay [10] (setting [17]); 43% in assay [11] (setting [17]); 15% in [12] (setting [17]). For the same compound, the remaining activity at 100 µM in assay [13] (setting [17]) was found to be 43%; in assay [14] (setting [17]), 86%; in assay [15] (setting [17]) it was 71%; in [16], 39%.
For the compound `CC(=O)Nc1nc2ccc(C(F)(F)F)cc2s1` [Compound 01-90], the remaining activity at 100 µM in [1] (setting [17]) is 64%; in assay [2] (setting [17]) it was 92%; in assay [3] (setting [17]), 61%; in [4] (setting [17]) it was 100%; in [5] it was 100%; in assay [6] (setting [17]), 99%. Besides, the remaining activity at 100 µM is 87% in assay [7] (setting [17]); 67% in [8] (setting [17]); 12% in [9] (setting [17]); 107% in assay [10] (setting [17]); 83% in assay [11] (setting [17]); 51% in assay [12] (setting [17]). For the same compound, the remaining activity at 100 µM came out at 76% in assay [13] (setting [17]), 106% in [14] (setting [17]), 100% in assay [15] (setting [17]) and 80% in assay [16].
As for `CC(=O)Nc1nc2ccc(C#N)cc2s1` [Compound 01-94], the remaining activity at 100 µM stood at 80% in assay [1] (setting [17]); 87% in assay [2] (setting [17]); 50% in assay [3] (setting [17]); 97% in [4] (setting [17]); 98% in [5]; 56% in [6] (setting [17]). For the same compound, the remaining activity at 100 µM amounted to 81% in assay [7] (setting [17]); 34% in assay [8] (setting [17]); 10% in assay [9] (setting [17]); 86% in assay [10] (setting [17]); 41% in [11] (setting [17]); 55% in assay [12] (setting [17]). The remaining activity at 100 µM in assay [13] (setting [17]) was determined as 69%; in assay [14] (setting [17]), 102%; in assay [15] (setting [17]), 86%; in assay [16], 54%.
With `COc1ccc2sc(NC(=O)c3cccc(NC(C)=O)c3)nc2c1` [MS:LY-2-85], the “residual kinase activity, RSK2” value in [2] (setting [17]) was found to be 32. Also, the “residual kinase activity, ERK1” value in [4] (setting [17]) is on record as 86. Further, the “residual kinase activity, PKBb” value in [5] was 22. For the same compound, the “residual kinase activity, p38d MAPK” value in assay [13] (setting [17]) came to 72. Also, the “residual kinase activity, p38a MAPK” value in assay [14] (setting [17]) is given as 89.
In the case of `CC(=O)Nc1ccc(C(=O)Nc2nc3cc(O)ccc3s2)cc1` [MS:LY-2-87], the “residual kinase activity, RSK2” value in assay [2] (setting [17]) was found to be 28. Besides, the “residual kinase activity, ERK1” value in [4] (setting [17]) is listed as 70. For the same compound, the “residual kinase activity, PKBb” value in [5] is on record as 18. In addition, in assay [13] (setting [17]), the “residual kinase activity, p38d MAPK” value amounted to 75. The “residual kinase activity, p38a MAPK” value in [14] (setting [17]) was 73.
In the case of `CC(=O)Nc1cccc(C(=O)Nc2nc3cc(O)ccc3s2)c1` [MS:LY-2-89], the “residual kinase activity, RSK2” value in assay [2] (setting [17]) amounted to 8. Besides, in [4] (setting [17]), the “residual kinase activity, ERK1” value came to 54. Also, the “residual kinase activity, PKBb” value in assay [5] came to 7. Besides, the “residual kinase activity, p38d MAPK” value in [13] (setting [17]) is given as 70. Also, the “residual kinase activity, p38a MAPK” value in [14] (setting [17]) amounted to 18.
